From patent publication US20110130384A1, “AMIDE COMPOUND” (TAKEDA PHARMACEUTICAL COMPANY LIMITED, priority 2008, published 2011)

Target: T1, human GPR52 (Homo sapiens, UniProt Q9Y2T5)
T1 construct: expressed in transfected cells; host or cells: CHO(dhfr-) cells
Assay: Increase of intracellular cAMP concentration in human GPR52-expressing CHO cell (AlphaScreen cAMP assay)
Assay type: cell-based
Settings: 1 μM test compound, human GPR52-expressing CHO(dhfr-) cells, 37° C. for 30 min; intracellular cAMP with 1 μM Reference Example 124 = 100%, DMSO = 0%
Description: Increase of Intracellular cAMP Concentration in Human GPR52-Expressing CHO Cell
Using OptiPlate-384 (PerkinElmer Inc.), 1×10^4 human GPR52-expressing CHO(dhfr-) cells were incubated together with 1 μM of a test compound in an assay buffer (30 μL, HBSS (containing Ca^2+ and Mg^2+), 0.5% BSA, 100 μm IBMX, 100 μm Ro20-1724, 5 mM HEPES (pH 7.55)) at 37° C. for 30 min. Thereafter, according to the protocol of AlphaScreen cAMP Assay Kit (PerkinElmer Inc.), the intracellular cAMP concentration was measured by EnVision (PerkinElmer Inc.). The GPR52 agonist activity was calculated, assuming the intracellular cAMP concentration in the presence of 1 μM 3-(6-(2-(3,4-dimethoxyphenyl)ethoxy)pyridin-2-yl)-N-(2-pyrrolidin-1-ylethyl)benzamide (Reference Example 124) to be 100% and assuming the intracellular cAMP concentration when DMSO was added instead of the test compound to be 0%.

T1 sequence (Q9Y2T5 whole entry): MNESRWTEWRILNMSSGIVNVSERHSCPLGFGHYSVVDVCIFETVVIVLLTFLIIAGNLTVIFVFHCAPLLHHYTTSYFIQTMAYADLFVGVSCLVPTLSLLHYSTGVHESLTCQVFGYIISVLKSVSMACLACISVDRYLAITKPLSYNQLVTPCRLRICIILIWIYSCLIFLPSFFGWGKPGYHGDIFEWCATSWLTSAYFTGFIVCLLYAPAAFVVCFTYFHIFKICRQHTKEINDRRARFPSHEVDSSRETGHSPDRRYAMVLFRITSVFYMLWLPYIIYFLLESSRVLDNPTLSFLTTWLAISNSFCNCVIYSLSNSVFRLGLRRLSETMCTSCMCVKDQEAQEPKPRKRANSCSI

Row | Structure (SMILES) | GPR52 agonist activity (%)
1 | O=C(NCCO)c1cccc(-c2ccc3c(c2)N(Cc2cc(Cl)cc(Cl)c2)CC3)c1 [Example 16, 3-[1-(3,5-dichlorobenzyl)-2,3-dihydro-1H-indol-6-yl]-N-(2-hydroxyethyl)benzamide] | 84%
2 | COc1ccc(CCn2ccc3ccc(-c4cccc(C(=O)NCCN(C)C)c4)nc32)cc1OC [Example 25, 3-[1-[2-(3,4-dimethoxyphenyl)ethyl]-1H-pyrrolo[2,3-b]pyridin-6-yl]-N-[2-(dimethylamino)ethyl]benzamide] | 80%
3 | COc1ccc(CCn2ccc3ccc(-c4cccc(C(=O)NCCC#N)c4)nc32)cc1OC [Example 26, N-(2-cyanoethyl)-3-[1-[2-(3,4-dimethoxyphenyl)ethyl]-1H-pyrrolo[2,3-b]pyridin-6-yl]benzamide] | 62%
4 | O=C(NCCO)c1cccc(-c2ccc3ccn(Cc4ccc(Cl)cc4Cl)c3n2)c1 [Example 28, 3-[1-(2,4-dichlorobenzyl)-1H-pyrrolo[2,3-b]pyridin-6-yl]-N-(2-hydroxyethyl)benzamide] | 64%
5 | O=C(NCCO)c1cccc(-c2ccc3c(n2)N(Cc2ccc(Cl)cc2Cl)CC3)c1 [Example 29, 3-[1-(2,4-dichlorobenzyl)-2,3-dihydro-1H-pyrrolo[2,3-b]pyridin-6-yl]-N-(2-hydroxyethyl)benzamide] | 76%
6 | N#CCCNC(=O)c1cccc(-c2ccc3c(n2)N(Cc2ccc(Cl)cc2Cl)CC3)c1 [Example 30, N-(2-cyanoethyl)-3-[1-(2,4-dichlorobenzyl)-2,3-dihydro-1H-pyrrolo[2,3-b]pyridin-6-yl]benzamide] | 72%
7 | O=C(NCCCO)c1cccc(-c2ccc3c(n2)N(Cc2ccc(Cl)cc2Cl)CC3)c1 [Example 31, 3-[1-(2,4-dichlorobenzyl)-2,3-dihydro-1H-pyrrolo[2,3-b]pyridin-6-yl]-N-(3-hydroxypropyl)benzamide] | 62%
8 | O=C(NCCO)c1cccc(-c2ccc3ccn(-c4ccc(Cl)cc4Cl)c3n2)c1 [Example 33, 3-[1-(2,4-dichlorophenyl)-1H-pyrrolo[2,3-b]pyridin-6-yl]-N-(2-hydroxyethyl)benzamide] | 61%
9 | N#CCCNC(=O)c1cccc(-c2ccc3c(n2)N(c2ccc(Cl)cc2Cl)CC3)c1 [Example 34, N-(2-cyanoethyl)-3-[1-(2,4-dichlorophenyl)-2,3-dihydro-1H-pyrrolo[2,3-b]pyridin-6-yl]benzamide] | 74%
10 | O=C(NCCO)c1cccc(-c2ccc3c(n2)N(c2ccc(Cl)cc2Cl)CC3)c1 [Example 35, 3-[1-(2,4-dichlorophenyl)-2,3-dihydro-1H-pyrrolo[2,3-b]pyridin-6-yl]-N-(2-hydroxyethyl)benzamide] | 81%
11 | N#CCCNC(=O)c1cccc(-c2ncc3ccn(Cc4ccc(Cl)cc4Cl)c3n2)c1 [Example 40, N-(2-cyanoethyl)-3-[7-(2,4-dichlorobenzyl)-7H-pyrrolo[2,3-d]pyrimidin-2-yl]benzamide] | 52%
12 | COc1ccc(CCn2cnc3ccc(-c4cccc(C(=O)NCCN5CCCC5)c4)nc32)cc1OC [Example 45, 3-[3-[2-(3,4-dimethoxyphenyl)ethyl]-3H-imidazo[4,5-b]pyridin-5-yl]-N-(2-pyrrolidin-1-ylethyl)benzamide] | 79%
13 | N#CCCNC(=O)c1cccc(-c2ccc3c(c2)N(c2ccc(Cl)cc2Cl)CCO3)c1 [Example 47, N-(2-cyanoethyl)-3-[4-(2,4-dichlorophenyl)-3,4-dihydro-2H-1,4-benzoxazin-6-yl]benzamide] | 63%
14 | CN(C)CCNC(=O)c1cccc(-c2ccc3c(c2)C(c2cc(Cl)ccc2Cl)CC3)c1 (stereo not shown) [Example 51, 3-[3-(2,5-dichlorophenyl)-2,3-dihydro-1H-inden-5-yl]-N-[2-(dimethylamino)ethyl]benzamide] | 89%
15 | O=C(NCCO)c1cccc(-c2ccc3c(c2)C(c2ccc(Cl)cc2Cl)CC3)c1 (stereo not shown) [Example 64, 3-[3-(2,4-dichlorophenyl)-2,3-dihydro-1H-inden-5-yl]-N-(2-hydroxyethyl)benzamide] | 84%
16 | O=C(NC(CO)CO)c1cccc(-c2ccc3c(c2)C(c2ccc(Cl)cc2Cl)CC3)c1 (stereo not shown) [Example 65, 3-[3-(2,4-dichlorophenyl)-2,3-dihydro-1H-inden-5-yl]-N-[2-hydroxy-1-(hydroxymethyl)ethyl]benzamide] | 91%
17 | C[S+]([O-])CCNC(=O)c1cccc(-c2ccc3c(c2)C(c2ccc(Cl)cc2Cl)CC3)c1 (stereo not shown) [Example 66, 3-[3-(2,4-dichlorophenyl)-2,3-dihydro-1H-inden-5-yl]-N-[2-(methylsulfinyl)ethyl]benzamide] | 88%
18 | CS(=O)(=O)CCNC(=O)c1cccc(-c2ccc3c(c2)C(c2ccc(Cl)cc2Cl)CC3)c1 (stereo not shown) [Example 67, 3-[3-(2,4-dichlorophenyl)-2,3-dihydro-1H-inden-5-yl]-N-[2-(methylsulfonyl)ethyl]benzamide] | 73%
19 | N#CCCNC(=O)c1cccc(-c2ccc3c(c2)C(Oc2ccc(Cl)cc2Cl)CC3)c1 (stereo not shown) [Example 73, N-(2-cyanoethyl)-3-[3-(2,4-dichlorophenoxy)-2,3-dihydro-1H-inden-5-yl]benzamide] | 73%
20 | O=C(NCCO)c1cccc(-c2ccc3c(c2)C(Oc2ccc(Cl)cc2Cl)CC3)c1 (stereo not shown) [Example 74, 3-[3-(2,4-dichlorophenoxy)-2,3-dihydro-1H-inden-5-yl]-N-(2-hydroxyethyl)benzamide] | 76%
21 | C[S+]([O-])CCNC(=O)c1cccc(-c2ccc3c(c2)C(Oc2ccc(Cl)cc2Cl)CC3)c1 (stereo not shown) [Example 76, 3-[3-(2,4-dichlorophenoxy)-2,3-dihydro-1H-inden-5-yl]-N-[2-(methylsulfinyl)ethyl]benzamide] | 80%
22 | CS(=O)(=O)CCNC(=O)c1cccc(-c2ccc3c(c2)C(Oc2ccc(Cl)cc2Cl)CC3)c1 (stereo not shown) [Example 77, 3-[3-(2,4-dichlorophenoxy)-2,3-dihydro-1H-inden-5-yl]-N-[2-(methylsulfonyl)ethyl]benzamide] | 73%
23 | O=C(NC1CC1)c1cccc(-c2ccc3c(c2)C(Oc2ccc(Cl)cc2Cl)CC3)c1 (stereo not shown) [Example 78, N-cyclopropyl-3-[3-(2,4-dichlorophenoxy)-2,3-dihydro-1H-inden-5-yl]benzamide] | 59%
24 | O=C(Nc1cccnc1)c1cccc(-c2ccc3c(c2)C(Oc2ccc(Cl)cc2Cl)CC3)c1 (stereo not shown) [Example 80, 3-[3-(2,4-dichlorophenoxy)-2,3-dihydro-1H-inden-5-yl]-N-pyridin-3-ylbenzamide] | 70%
25 | O=C(Nc1nccs1)c1cccc(-c2ccc3c(c2)C(Oc2ccc(Cl)cc2Cl)CC3)c1 (stereo not shown) [Example 82, 3-[3-(2,4-dichlorophenoxy)-2,3-dihydro-1H-inden-5-yl]-N-1,3-thiazol-2-ylbenzamide] | 67%
26 | NC(=O)CNC(=O)c1cccc(-c2ccc3c(c2)C(Oc2ccc(Cl)cc2Cl)CC3)c1 (stereo not shown) [Example 83, N-(2-amino-2-oxoethyl)-3-[3-(2,4-dichlorophenoxy)-2,3-dihydro-1H-inden-5-yl]benzamide] | 70%
27 | O=C(NCCO)c1cccc(-c2ccc3c(c2)C(Nc2ccc(Cl)cc2Cl)CO3)c1 (stereo not shown) [Example 87, 3-[3-[(2,4-dichlorophenyl)amino]-2,3-dihydro-1-benzofuran-5-yl]-N-(2-hydroxyethyl)benzamide] | 59%
28 | O=C(NCCO)c1cccc(-c2ccc3c(c2)C(c2ccc(Cl)cc2Cl)CCO3)c1 (stereo not shown) [Example 90, 3-[4-(2,4-dichlorophenyl)-3,4-dihydro-2H-chromen-6-yl]-N-(2-hydroxyethyl)benzamide] | 65%
